{"source": "patent US6967219B2", "about": "“Reversing or preventing premature vascular senescence” (Cornell Research Foundation, Inc., priority 2001, dated 2005)", "key": {"[1]": {"test_system": "Human umbilical vein endothelial cells (HUVEC)", "experiment": "SA β-galactosidase staining of HUVEC plated on glycated collagen (premature senescence)", "format": "cell-based", "conditions": "for reduction/reversal of premature senescence across dilutions of glycated collagen: HUVEC on glycated collagen at different dilutions/concentrations of glycated matrix", "method": "Detection of SA-β-galactosidase was carried out utilizing the histochemical staining method of Dimitri et al, Proc. Natl. Acad. Sci. USA 92, 9363-9367 as modified by Van der Loo, B., et al, Exp. Cell Res. 241, 309-315 (1998). SA-β-galactosidase is a known senescence marker. […] This phenomenon occurred in 12 week and 21 week-old diabetic rats, but was undetectable in age-matched Zucker lean rats (0/24 branches examined).\nHuman umbilical vein endothelial cells (HUVEC) after four passages were plated on glycated collagen with the addition of 0.1 mM hydroxy-L-arginine vis-a-vis the same concentration of L-arginine. Application was made on day 1, 2 hours after plating. The extent of SA β-galactosidase staining was evaluated on days 3 and 5 of culture on a glycated or native matrix. In addition, to study the reversibility process, HUVEC were plated on glycated collagen for three days (time sufficient to induce premature senescence), and hydroxy-L-arginine was added every 12 hours, starting on day 3, and the cells were examined on day 5."}, "[2]": {"test_system": "patients of Examples I, II and III", "experiment": "Example IV: other hydroxyguanidines substituted for hydroxy-L-arginine in Examples I, II and III", "format": "in vivo, human", "conditions": "same dosage as in Examples I"}, "[3]": {"test_system": "patient with end stage renal disease", "experiment": "Example I: patient with end stage renal disease on chronic hemodialysis treated with hydroxy-L-arginine", "format": "in vivo, human", "conditions": "1-20 mg/kg thrice/day, 6 months later", "from_the_text": "(In some cases, renal biopsy will be performed, which will directly disclose the deposition of AGE in the renal parenchyma and increased proportion of SA-beta-galactosidase-stained endothelial cells). […] In addition, the patient has their arterio-veinous fistula revised 3 times due to clotting and stenosis. The patient is also complaining of a non-healing foot ulcer and intermittent claudication, both signs of peripheral vascular disease."}, "[4]": {"test_system": "patient with type I (alternatively type 2) diabetes mellitus", "experiment": "Example II: poorly controlled diabetes mellitus patient treated with hydroxy-L-arginine", "format": "in vivo, human", "conditions": "1-20 mg/kg thrice/day, 6 months later", "method": "A patient with type I (alternatively, a patient with type 2) diabetes mellitus, past medical history of myocardial infarction, peripheral vascular disease, hypertension, proteinuria and non-healing foot ulcer, is receiving insulin, but patient is poorly compliant. Patient's fasting blood glucose level is 200 mg/dl. Additional laboratory findings include elevated Hgb Alc level (8.5%) as well as one of the following levels of AGE: elevated level of pentosidine (2.3 pmol/mg) or elevated level of Amadori serum albumin (41 U/ml). (In some cases, renal biopsy will be performed, which will directly disclose the deposition of AGE in the renal parenchyma and increased proportion of SA-beta-galactosidase-stained endothelial cells)."}, "[5]": {"test_system": "patient diagnosed with Alzheimer's disease", "experiment": "Example III: patient with Alzheimer's disease treated with hydroxy-L-arginine", "format": "in vivo, human", "conditions": "1-20 mg/kg thrice/day alone or with antioxidant agents and vitamins; two years later", "method": "A person with no known medical conditions has been experiencing a sustained loss of short-term memory for the past three years. Their CBC, electrolytes and other plasma parameters of metabolic profile are within normal range. There is no vitamin deficiency, no abnormalities in liver function tests, and no previous history of cerebro-vascular accidents. […] Based on these findings the patient is diagnosed with Alzheimer's disease. Therapy with hydroxy-L-arginine is initiated at doses 1-20 mg/kg thrice/day alone or in combination with antioxidant agents and vitamins (e.g., ascorbate, alpha-tocopherol, vitamin B6, vitamin B12, folate (folic acid), carotenoids, coenzyme Q10, phytoestrogens (including isoflavonoids), selenium, butylated hydroxytoluene (BHT), butylated hydroxyanisole (BHA) and n-3 polyunsaturated fatty acids (PUFA))."}, "[6]": {"test_system": "saphenous vein endothelial cells seeded on artificial valve", "experiment": "Example V: artificial heart valve seeded with endothelial cells cultured with hydroxy-L-arginine, implanted", "format": "in vivo, human", "conditions": "cells cultured with 10-100 μg/ml at 35° C. for 2-3 weeks", "method": "A person with a defective heart valve is being prepared for a surgical replacement of the valve with a prosthetic device. A saphenous vein is obtained to harvest endothelial cells for expansion and seeding on the surface of a artificial valve. Expanded endothelial cells are cultured in the medium containing hydroxy-L-arginine, 10-100 μg/ml at 35° C. for 2-3 weeks and cells are seeded on the valve in the continuous presence of the same concentration of hydroxy-L-arginine. Thus prepared, the artificial valve is implanted."}, "[7]": {"test_system": "saphenous vein endothelial cells seeded on artificial vascular graft", "experiment": "Example VI: artificial vascular graft seeded with endothelial cells cultured with hydroxy-L-arginine, implanted", "format": "in vivo, human", "conditions": "cells cultured with 10-100 μg/ml at 35° C. for 2-3 weeks", "method": "A person with peripheral vascular disease is undergoing an elective femoral-to-popliteal bypass surgery utilizing an artificial vascular graft. A saphenous vein is obtained to harvest endothelial cells for expansion and seed on the surface of a graft. Expanded endothelial cells are cultured in the medium containing hydroxy-L-arginine, 10-100 μg/ml at 35° C. for 2-3 weeks, and cells are seeded on the graft in the continuous presence of the same concentration of hydroxy-L-arginine. Thus prepared, the vascular graft is implanted."}}, "data": [{"compound": "N=C(N)NCCC[C@H](N)C(=O)O", "note": "[L-arginine, reference compound]", "values": [{"measurement": "reduction/reversal of premature senescence across dilutions of glycated collagen", "setting": "[1]", "value": "failed to reverse premature senescence at higher concentrations of glycated matrix"}]}, {"compound": "N=C(N)NO", "note": "[hydroxyguanidine, Hydroxyguanidine]", "values": [{"measurement": "results when substituted for hydroxy-L-arginine at the same dosage", "setting": "[2]", "value": "Positive results similar to those obtained in Examples I, II and III"}]}, {"compound": "N=C(NO)NCCC[C@H](N)C(=O)O", "note": "[hydroxy-L-arginine, N^ω-hydroxy-L-arginine]", "values": [{"measurement": "development of premature senescence (SA β-galactosidase staining)", "setting": "[1]; HUVEC grown on glycated collagen, 0.1 mM added to culture medium on day 1, 2 hours after plating, evaluated days 3 and 5", "value": "completely abolished the development of premature senescence"}, {"measurement": "reduction/reversal of premature senescence across dilutions of glycated collagen", "setting": "[1]", "value": "able to reduce premature senescence at all dilutions of glycated collagen"}, {"measurement": "coronary symptoms", "setting": "[3]", "value": "significant subjective improvement"}, {"measurement": "foot ulcer", "setting": "[3]", "value": "healing of foot ulcer"}, {"measurement": "pentosidine level after treatment", "setting": "[3]; baseline 2.5 pmol/mg", "value": 1.7, "unit": "pmol/mg"}, {"measurement": "Amadori serum albumin level after treatment", "setting": "[3]; baseline 40 U/ml", "value": 30, "unit": "U/ml"}, {"measurement": "blood pressure", "setting": "[3]; baseline 175/105 mmHg", "value": "normalization of blood pressure"}, {"measurement": "blood pressure", "setting": "[4]", "value": "normalization of blood pressure"}, {"measurement": "coronary angiogram", "setting": "[4]", "value": "either no further worsening of stenotic lesions or some degree of improvement"}, {"measurement": "coronary symptoms", "setting": "[4]", "value": "significant subjective improvement"}, {"measurement": "foot ulcer", "setting": "[4]", "value": "healing of foot ulcer"}, {"measurement": "pentosidine level after treatment", "setting": "[4]; baseline 2.3 pmol/mg", "value": 1.7, "unit": "pmol/mg"}, {"measurement": "Amadori serum albumin level after treatment", "setting": "[4]; baseline 41 U/ml", "value": 30, "unit": "U/ml"}, {"measurement": "symptoms related to the memory loss", "setting": "[5]", "value": "no deterioration and a partial improvement"}, {"measurement": "thrombotic and atheroembolic complications", "setting": "[6]", "value": "less thrombotic and atheroembolic complications"}, {"measurement": "thrombotic and atheroembolic complications", "setting": "[7]", "value": "less thrombotic and atheroembolic complications"}]}]}
